“And” between values parts separate entries of the source, which are not always exact repeats. Equal values may be shown once.
How the values were obtained:
[1] = system: P. falciparum Dd2-Polδ Flask 2; test: ABS susceptibility after resistance selection, recrudescent line; type: cell-based, Plasmodium falciparum; conditions: for % Parasite survival: Dd2 Pol D Flask 2, rep 1-5
Experimental: (§1) P. falciparum ABS parasites were cultured at 3% hematocrit in human O^+ RBCs in RPMI-1640 media supplemented with 25 mM HEPES, 50 mg/L hypoxanthine, 2 mM L-glutamine, 0.21% sodium bicarbonate, 0.5% (w/v) AlbuMAXII (Invitrogen) and 10 μg/mL gentamycin. Culture flasks were kept in modular incubator chambers (Billups-Rothenberg) in a 5% O2, 5% CO2, and 90% N2 atmosphere at 37°C. Synchronized ring-stage parasites were obtained by two consecutive rounds of treatment with 5% D-sorbitol in 48-hour intervals. […] This was done by exposing cultures at 1% hematocrit and 0.3% parasitemia in 96-well plates in the presence of drugs in a two-fold 10 or 12-point serial dilution in duplicate along with drug-free controls. After a 72-hour incubation, parasite survival was assessed by flow cytometry on an iQue flow cytometer (Sartorius) using SYBR Green and MitoTracker Deep Red FM (Life Technologies) as nuclear stain and vital dye, respectively. Parasite survival was determined as a percentage relative to drug-free control. IC50 values were interpolated from log concentration versus response curves in Prism 9 (GraphPad Prism Software Inc.).
(§2) Resistance to LDT-623 was assessed using single-step in vitro resistance selection protocols. […] Dd2-Pol δ is a hypermutable line with two point mutations in DNA polymerase δ that compromise its proofreading activity Cultures were monitored daily by thin blood smears until live parasites were no longer detectable. Drug-containing media was changed daily until parasites cleared, and every other day thereafter. Cultures were passaged once weekly by reducing the volume by 25% and replacing 1/3 of RBCs. Recrudescence monitoring was carried out twice a week by thin blood smears for 60 days. In the event of recrudescence, parasite susceptibility to LDT-623 was tested as described above.

[2] = system: P. falciparum Dd2-Polδ Flask 1; test: as above; type: cell-based, Plasmodium falciparum; conditions: for % Parasite survival: Dd2 Pol D Flask 1, rep 1-5
Experimental: as §1, §2

For COc1cc2nccc(Nc3cccc(Oc4ccccc4)c3)c2cc1OC [LDT-623], the “% Parasite survival” value ([1]; 0.09 uM) was 88.00% and 80.84% and 100.00% and 86.03%, the “% Parasite survival” value ([1]; 0.19 uM) was 82.04% and 70.05% and 89.31% and 86.03% and 100.00% and the “% Parasite survival” value ([1]; 0.78 uM) was 0.00% and 7.11% and 0.21%. The “% Parasite survival” value ([1]; 1.56 uM) was 1.80% and 2.03% and 1.07% and 0.00%, the “% Parasite survival” value ([1]; 3.12 uM) was 7.60% and 5.20% and 3.53% and 0.39% and 7.52% and the “% Parasite survival” value ([1]; 25 uM) was 0.00% and 7.74% and 3.09%. The “% Parasite survival” value ([1]; 50 uM) was 0.00% and 5.80%, the “mean AUC of survival curve” value ([1]; recrudescent parasites, Flask 2) was 22.3 and the “% Parasite survival” value ([2]; 0.09 uM) was 100.00% and 83.53% and 90.04% and 99.83%. For the same compound, the “% Parasite survival” value ([2]; 0.19 uM) was 92.44% and 73.57% and 80.08% and 80.97% and 100.00%, the “% Parasite survival” value ([2]; 0.78 uM) was 0.00% and the “% Parasite survival” value ([2]; 1.56 uM) was 0.00% and 1.04%. For the same compound, the “% Parasite survival” value ([2]; 50 uM) was 0.00% and 0.35% and the “mean AUC of survival curve” value ([2]; recrudescent parasites, Flask 1) was 53.8.
